Data on six compounds can be found in paper PMC10709440, “High-throughput ligand profile characterization in novel cell lines expressing seven heterologous insect olfactory receptors for the detection of volatile plant biomarkers” (Scientific Reports, 2023).

Read-outs that look alike come from different tables or passages of the source.

One test concerns the target T1, Drosophila OR47a (Drosophila melanogaster, UniProt P81921).
T1 construct: expressed in transfected cells
T1 sequence (P81921 1-385): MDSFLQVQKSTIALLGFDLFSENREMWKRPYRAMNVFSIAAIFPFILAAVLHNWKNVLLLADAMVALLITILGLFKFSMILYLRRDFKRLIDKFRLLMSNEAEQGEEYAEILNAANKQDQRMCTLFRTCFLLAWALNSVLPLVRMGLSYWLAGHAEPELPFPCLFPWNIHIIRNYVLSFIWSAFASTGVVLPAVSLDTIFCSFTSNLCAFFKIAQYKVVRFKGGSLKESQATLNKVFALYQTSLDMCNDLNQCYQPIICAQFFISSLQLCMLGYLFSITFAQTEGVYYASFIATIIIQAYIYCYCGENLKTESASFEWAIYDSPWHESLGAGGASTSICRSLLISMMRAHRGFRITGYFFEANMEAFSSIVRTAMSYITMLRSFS
T1 sequence (Q9VNB5 1-486 partner): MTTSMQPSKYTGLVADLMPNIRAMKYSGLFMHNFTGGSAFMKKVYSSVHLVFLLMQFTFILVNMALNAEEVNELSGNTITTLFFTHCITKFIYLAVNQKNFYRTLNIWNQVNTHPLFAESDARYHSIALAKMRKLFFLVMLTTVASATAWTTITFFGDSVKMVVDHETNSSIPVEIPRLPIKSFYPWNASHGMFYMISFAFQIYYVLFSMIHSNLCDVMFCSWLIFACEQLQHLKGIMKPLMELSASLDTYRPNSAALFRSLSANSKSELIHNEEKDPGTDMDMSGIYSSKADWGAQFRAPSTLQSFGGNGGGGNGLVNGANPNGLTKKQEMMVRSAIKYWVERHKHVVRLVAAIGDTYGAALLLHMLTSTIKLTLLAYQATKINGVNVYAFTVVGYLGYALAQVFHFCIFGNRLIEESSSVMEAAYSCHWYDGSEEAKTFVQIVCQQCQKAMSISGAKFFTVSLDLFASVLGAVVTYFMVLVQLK
Kind of test: Calcium ion fluorescence (GCaMP6) assay, OR47a stable HEK293 cell line. Type of test: cell-based. Also on record: key to DF norm AVERAGE OR47a: VOC ∆F divided by the plate's mean ∆F response to 50 µM VUAA1. Conditions: for Average response: OR47a cell line, mean of biological replicates; for activation at 1 µM / activation at 10 µM / activation at 100 µM: HEK293, read-out: OR47a response (VUAA1-normalized response). Summed up: (§1)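 HEK293 lines stably expressing each Drosophila OR with GCaMP6, doxycycline-induced (1 μg/mL) 48 or 72 h. Fluorescence recorded 5 s baseline then 30 s after VOC injection at pH 7.3; ΔF=(FMAX−F0)/F0, normalized to 50 µM VUAA1 response per line, triplicate wells averaged; concentration series 0.01–100 μM.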

The next test addresses T2, Drosophila OR98a (Drosophila melanogaster, UniProt Q9VAZ3).
T2 construct: expressed in transfected cells
T2 sequence (Q9VAZ3 1-397): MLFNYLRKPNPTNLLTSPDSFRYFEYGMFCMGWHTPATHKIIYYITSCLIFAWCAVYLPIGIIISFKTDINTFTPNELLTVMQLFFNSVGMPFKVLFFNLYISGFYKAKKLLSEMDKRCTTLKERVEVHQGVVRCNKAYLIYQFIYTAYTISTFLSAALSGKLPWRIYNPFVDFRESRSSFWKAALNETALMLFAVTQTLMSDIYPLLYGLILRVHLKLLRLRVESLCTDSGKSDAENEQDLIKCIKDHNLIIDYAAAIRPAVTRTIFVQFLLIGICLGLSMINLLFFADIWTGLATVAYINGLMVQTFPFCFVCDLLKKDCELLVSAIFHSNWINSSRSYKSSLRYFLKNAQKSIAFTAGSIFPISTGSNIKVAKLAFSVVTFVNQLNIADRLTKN
T2 sequence (Q9VNB5 1-486 partner): T1 sequence (Q9VNB5 1-486 partner)
Kind of test: Calcium ion fluorescence (GCaMP6) assay, OR98a stable HEK293 cell line. The class given is cell-based. Also on record: key to DF norm AVERAGE OR98a: VOC ∆F divided by the plate's mean ∆F response to 50 µM VUAA1. Conditions: for OR98a Average response (VUAA1-normalized): 50 μM VUAA1 = 1; for Average response: OR98a cell line, average of biological replicates, fraction of VUAA1 response. An outline of the steps:
as §1

The mark [1] stands for this setting: ligand concentration 1 (unit not given), threshold 0.05, below shown as 0.
Setting [2] is: ligand concentration 10 (unit not given), threshold 0.05, below shown as 0.
[3] abbreviates: ligand concentration 100 (unit not given), threshold 0.05, below shown as 0.
Setting [4] is: HEK293, read-out: Average response.
Setting [5] is: HEK293, read-out: OR98a response (VUAA1-normalized response).
Setting [6] is: concentration 1, normalized fluorescence change, values below 0.05 threshold given as 0.
[7] abbreviates: concentration 10, normalized fluorescence change, values below 0.05 threshold given as 0.
The mark [8] stands for this setting: concentration 100, normalized fluorescence change, values below 0.05 threshold given as 0.

Consider `CC(C)=CCC/C(C)=C/CC/C(C)=C/CO` [e,e-farnesol], for which the Average response is listed as 0.03 on Drosophila OR47a (odorant cc. 1 µM); 0.00 at Drosophila OR47a (odorant cc. 10 µM); 0.032 on Drosophila OR47a (odorant cc. 100 µM); 0.017 on Drosophila OR98a (cc. 1 µM); 0.07 on Drosophila OR98a (cc. 10 µM); 0.10 on Drosophila OR98a (cc. 100 µM). For the same compound, the “OR47a response (VUAA1-normalized response)” value on Drosophila OR47a (VOC concentration 1 μM), on Drosophila OR47a (VOC concentration 10 μM) and at Drosophila OR47a (VOC concentration 100 μM) was 0.00 in each case. For the same compound, the “DF norm AVERAGE OR47a” value at Drosophila OR47a (setting [1]), at Drosophila OR47a (setting [2]) and at Drosophila OR47a (setting [3]) was 0 in each case. Moreover, the “OR98a Average response (VUAA1-normalized)” value is recorded as 0.02 at Drosophila OR98a (1 μM VOC), 0.07 at Drosophila OR98a (10 μM VOC) and 0.10 on Drosophila OR98a (100 μM VOC). For the same compound, the “OR98a response (VUAA1-normalized response)” value turned out to be 0.00 at Drosophila OR98a (VOC concentration 1 μM), 0.07 on Drosophila OR98a (VOC concentration 10 μM) and 0.10 on Drosophila OR98a (VOC concentration 100 μM). The figures for the “DF norm AVERAGE OR98a” value on Drosophila OR98a (setting [1]), on Drosophila OR98a (setting [2]) and on Drosophila OR98a (setting [3]) were 0, 0.07127 and 0.09839, respectively.

Consider `CCc1ccccc1` [ethylbenzene], for which the activation at 1 µM at Drosophila OR47a, at Drosophila OR98a (setting [4]) and at Drosophila OR98a (setting [5]) was 0% in each case. The activation at 10 µM on Drosophila OR47a is 0%; on Drosophila OR98a (setting [4]) it was 12%; on Drosophila OR98a (setting [5]) it was 12%. Also, the activation at 100 µM at Drosophila OR47a, at Drosophila OR98a (setting [4]) and on Drosophila OR98a (setting [5]) was 0% each time. For the same compound, the Average response on Drosophila OR47a (odorant cc. 1 µM) came out at 0.0189; at Drosophila OR47a (odorant cc. 10 µM), 0.0233; at Drosophila OR47a (odorant cc. 100 µM) it was 0.00. In addition, the “DF norm AVERAGE OR47a” value on Drosophila OR47a (setting [1]), on Drosophila OR47a (setting [2]) and at Drosophila OR47a (setting [3]) was 0 each time. In addition, the “DF norm AVERAGE OR98a” value at Drosophila OR98a (setting [1]) turned out to be 0; at Drosophila OR98a (setting [2]), 0.1169; at Drosophila OR98a (setting [3]), 0.

In the case of `C=CCc1ccc(O)c(OC)c1` [eugenol], the activation at 1 µM on Drosophila OR47a was 0%; on Drosophila OR98a (setting [4]), 3.37%; at Drosophila OR98a (setting [5]), 0%. For the same compound, the activation at 10 µM on Drosophila OR47a, at Drosophila OR98a (setting [4]) and on Drosophila OR98a (setting [5]) was 0% in each case. Moreover, the activation at 100 µM on Drosophila OR47a, at Drosophila OR98a (setting [4]) and on Drosophila OR98a (setting [5]) was 0% throughout. Also, the figures for the Average response at Drosophila OR47a (odorant cc. 1 µM), on Drosophila OR47a (odorant cc. 10 µM) and on Drosophila OR47a (odorant cc. 100 µM) were 0.00, 0.0283 and 0.0436, respectively. For the same compound, the “DF norm AVERAGE OR47a” value at Drosophila OR47a (setting [1]), on Drosophila OR47a (setting [2]) and on Drosophila OR47a (setting [3]) was 0 throughout. The “DF norm AVERAGE OR98a” value at Drosophila OR98a (setting [1]), on Drosophila OR98a (setting [2]) and on Drosophila OR98a (setting [3]) was 0 throughout.

In the case of `C=C(C)[C@H]1CC=C(C)CC1` [limonene], the Average response at Drosophila OR47a (odorant cc. 1 µM) was 0.0214; on Drosophila OR47a (odorant cc. 10 µM) it was 0.00; at Drosophila OR47a (odorant cc. 100 µM) it was 0.00; at Drosophila OR98a (cc. 1 µM) it was 0.00; at Drosophila OR98a (cc. 10 µM) it was 0.02; on Drosophila OR98a (cc. 100 µM) it was 0.0268. The “OR47a response (VUAA1-normalized response)” value at Drosophila OR47a (VOC concentration 1 μM), at Drosophila OR47a (VOC concentration 10 μM) and at Drosophila OR47a (VOC concentration 100 μM) was 0.00 each time. The “DF norm AVERAGE OR47a” value at Drosophila OR47a (setting [1]), at Drosophila OR47a (setting [2]) and on Drosophila OR47a (setting [3]) was 0 each time. Besides, the “OR98a response (VUAA1-normalized response)” value at Drosophila OR98a (VOC concentration 1 μM), at Drosophila OR98a (VOC concentration 10 μM) and on Drosophila OR98a (VOC concentration 100 μM) was 0.00 each time. The “DF norm AVERAGE OR98a” value on Drosophila OR98a (setting [1]), at Drosophila OR98a (setting [2]) and at Drosophila OR98a (setting [3]) was 0 each time.

Regarding `CCCC(=O)OCC` [ethyl butyrate], the activation at 1 µM at Drosophila OR47a was 0%; at Drosophila OR98a (setting [4]), 3.54%; on Drosophila OR98a (setting [5]) it was 0%. Moreover, the activation at 10 µM on Drosophila OR47a, at Drosophila OR98a (setting [4]) and at Drosophila OR98a (setting [5]) was 0% each time. In addition, the activation at 100 µM came to 0% on Drosophila OR47a, 6.6% on Drosophila OR98a (setting [4]) and 6.6% at Drosophila OR98a (setting [5]). Further, the Average response amounted to 0.00 on Drosophila OR47a (odorant cc. 1 µM), 0.00 on Drosophila OR47a (odorant cc. 10 µM) and 0.0448 at Drosophila OR47a (odorant cc. 100 µM). In addition, the “DF norm AVERAGE OR47a” value at Drosophila OR47a (setting [1]), at Drosophila OR47a (setting [2]) and at Drosophila OR47a (setting [3]) was 0 each time. For the same compound, the “DF norm AVERAGE OR98a” value at Drosophila OR98a (setting [1]) was 0; on Drosophila OR98a (setting [2]) it was 0; at Drosophila OR98a (setting [3]), 0.06596.

Consider `CC1=CCC2C(C1)C2(C)C` (stereo not drawn) [3-carene], for which the activation at 1 µM on Drosophila OR47a, on Drosophila OR98a (setting [4]) and on Drosophila OR98a (setting [5]) was 0% in each case. The activation at 10 µM at Drosophila OR47a was found to be 0%; at Drosophila OR98a (setting [4]) it was 1.26%; on Drosophila OR98a (setting [5]), 0%. Moreover, the activation at 100 µM on Drosophila OR47a, on Drosophila OR98a (setting [4]) and on Drosophila OR98a (setting [5]) was 0% throughout. Further, the Average response on Drosophila OR47a (odorant cc. 1 µM) is 0.00; at Drosophila OR47a (odorant cc. 10 µM) it was 0.00; on Drosophila OR47a (odorant cc. 100 µM), 0.03. In addition, the “DF norm AVERAGE OR47a” value at Drosophila OR47a (setting [6]), at Drosophila OR47a (setting [7]) and on Drosophila OR47a (setting [8]) was 0 in each case. For the same compound, the “DF norm AVERAGE OR98a” value at Drosophila OR98a (setting [6]), on Drosophila OR98a (setting [7]) and on Drosophila OR98a (setting [8]) was 0 throughout.
